This is an account of results in patent US20260055114A1, “IMIDAZO[1,2-B]PYRIDAZINE INHIBITORS OF CYCLIN-DEPENDENT KINASES” (H. LEE MOFFITT CANCER CENTER AND RESEARCH INSTITUTE, INC., priority 2022, published 2026).

Assay [1] addresses CDK12 (Homo sapiens, UniProt Q9NYV4). The assay is described as follows: Inhibition of cyclin-dependent kinase 12 (% enzyme activity at 1 uM and IC50). It counts as biochemical. Conditions: for remaining activity at 1 µM: 1 uM compound.
Assay [2] relates to MDA-MB-231 cell line. The assay is described as follows: Antiproliferative activity, MDA-MB-231 cell line (GI50). It counts as cell-based. The following applies: Homo sapiens.
Assay [3] concerns CCNK. The assay is described as follows: CCNK degradation (DC50, Dmax). It counts as cell-based. Conditions: for Dmax (%): CCNK degradation.

Sequence of CDK12 (Q9NYV4 whole entry): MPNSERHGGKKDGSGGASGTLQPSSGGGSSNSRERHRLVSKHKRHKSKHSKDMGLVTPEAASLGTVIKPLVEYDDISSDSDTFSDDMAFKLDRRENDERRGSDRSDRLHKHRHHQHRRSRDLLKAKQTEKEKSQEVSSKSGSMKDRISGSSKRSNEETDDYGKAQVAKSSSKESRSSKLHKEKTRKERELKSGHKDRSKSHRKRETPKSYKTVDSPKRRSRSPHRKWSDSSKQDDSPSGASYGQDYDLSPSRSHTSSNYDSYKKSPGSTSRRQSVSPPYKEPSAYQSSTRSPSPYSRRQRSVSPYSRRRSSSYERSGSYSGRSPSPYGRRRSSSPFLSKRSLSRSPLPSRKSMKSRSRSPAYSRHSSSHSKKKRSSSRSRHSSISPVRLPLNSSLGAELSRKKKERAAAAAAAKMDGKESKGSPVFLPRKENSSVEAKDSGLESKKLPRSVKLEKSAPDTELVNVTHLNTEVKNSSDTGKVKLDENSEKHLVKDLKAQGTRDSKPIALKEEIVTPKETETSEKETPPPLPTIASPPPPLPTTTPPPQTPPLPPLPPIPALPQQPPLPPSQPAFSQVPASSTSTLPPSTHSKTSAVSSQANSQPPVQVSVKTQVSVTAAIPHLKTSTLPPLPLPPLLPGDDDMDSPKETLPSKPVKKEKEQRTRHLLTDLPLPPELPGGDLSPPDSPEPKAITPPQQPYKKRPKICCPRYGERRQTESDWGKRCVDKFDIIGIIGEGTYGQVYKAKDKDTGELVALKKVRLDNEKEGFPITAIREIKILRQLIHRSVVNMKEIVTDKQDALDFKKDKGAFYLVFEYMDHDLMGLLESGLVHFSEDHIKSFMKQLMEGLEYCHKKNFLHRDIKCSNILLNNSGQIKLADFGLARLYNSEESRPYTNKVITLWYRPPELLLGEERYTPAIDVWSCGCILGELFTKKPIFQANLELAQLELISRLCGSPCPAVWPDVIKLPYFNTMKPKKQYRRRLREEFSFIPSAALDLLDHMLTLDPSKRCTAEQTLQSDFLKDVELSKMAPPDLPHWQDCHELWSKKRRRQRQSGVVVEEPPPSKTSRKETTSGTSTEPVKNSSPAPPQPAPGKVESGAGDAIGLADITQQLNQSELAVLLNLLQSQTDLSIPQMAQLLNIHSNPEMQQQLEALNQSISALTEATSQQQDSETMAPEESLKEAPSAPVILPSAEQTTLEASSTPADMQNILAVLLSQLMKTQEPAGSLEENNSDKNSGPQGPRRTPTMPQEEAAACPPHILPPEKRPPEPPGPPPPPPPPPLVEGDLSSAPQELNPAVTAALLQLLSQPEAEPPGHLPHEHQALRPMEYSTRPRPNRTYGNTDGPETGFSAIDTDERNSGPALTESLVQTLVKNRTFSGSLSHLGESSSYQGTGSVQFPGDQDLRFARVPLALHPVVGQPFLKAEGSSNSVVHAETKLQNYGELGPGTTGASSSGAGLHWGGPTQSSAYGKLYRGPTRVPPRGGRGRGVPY
Sequence of CDK12 (O75909 whole entry partner): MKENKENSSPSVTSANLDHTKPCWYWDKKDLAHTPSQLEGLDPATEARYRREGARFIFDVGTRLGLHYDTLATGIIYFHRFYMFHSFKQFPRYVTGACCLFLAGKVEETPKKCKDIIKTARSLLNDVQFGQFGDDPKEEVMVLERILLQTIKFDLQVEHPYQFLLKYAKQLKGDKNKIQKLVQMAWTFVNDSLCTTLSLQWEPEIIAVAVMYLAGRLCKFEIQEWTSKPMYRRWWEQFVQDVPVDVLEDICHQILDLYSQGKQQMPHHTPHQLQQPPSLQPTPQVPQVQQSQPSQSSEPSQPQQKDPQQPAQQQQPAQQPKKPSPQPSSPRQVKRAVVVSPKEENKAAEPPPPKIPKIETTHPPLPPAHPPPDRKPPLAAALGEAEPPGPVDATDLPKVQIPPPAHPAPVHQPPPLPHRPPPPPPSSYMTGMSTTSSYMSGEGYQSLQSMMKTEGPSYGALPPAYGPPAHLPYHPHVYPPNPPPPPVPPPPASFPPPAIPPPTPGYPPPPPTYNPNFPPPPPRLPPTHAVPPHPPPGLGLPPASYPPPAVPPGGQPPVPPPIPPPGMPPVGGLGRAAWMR

In assay [1], `CN1CCN(c2cc(NCc3nc4c(F)c(F)ccc4[nH]3)c3ncc(-c4cnn(C(F)F)c4)n3n2)CC1` [Cmpd 54, N-((4,5-difluoro-1H-benzo[d]imidazol-2-yl)methyl)-3-(1-(difluoromethyl)-1H-pyrazol-4-yl)-6-(4-methylpiperazin-1-yl) imidazo[1,2-b]pyridazin-8-amine] returned an IC50 of 175 nM. In assay [2], the GI50 came out at 440 nM. Moreover, in assay [3], it took 110 nM to reach half-maximal degradation (DC50) and the “Dmax (%)” value was 85%.
In assay [1], `Fc1ccc2[nH]c(CNc3cc(N4CCOCC4)nn4c(-c5cnn(C(F)F)c5)cnc34)nc2c1F` [Cmpd 55, N-((4,5-difluoro-1H-benzo[d]imidazol-2-yl)methyl)-3-(1-(difluoromethyl)-1H-pyrazol-4-yl)-6-morpholinoimidazo[1,2-b]pyridazin-8-amine] had an IC50 of 283 nM. This compound also had a GI50 in assay [2] of 472 nM. For the same compound, in assay [3], half-maximal degradation (DC50) was put at 70 nM and the “Dmax (%)” value worked out at 80%.
`Cc1ccnc2[nH]c(CNc3cc(N4CCN(C)CC4)nn4c(-c5cnn(C(F)F)c5)cnc34)nc12` [Cmpd 57, 3-(1-(difluoromethyl)-1H-pyrazol-4-yl)-N-((7-methyl-3H-imidazo[4,5-b]pyridin-2-yl)methyl)-6-(4-methylpiperazin-1-yl) imidazo[1,2-b]pyridazin-8-amine] had an IC50 in assay [1] of 54 nM. The same compound showed a GI50 in assay [2] of 419 nM. In assay [3], the 50% degradation concentration (DC50) came to 240 nM and the “Dmax (%)” value is 65%.
The compound `Cc1ccnc2[nH]c(CNc3cc(N4CCOCC4)nn4c(-c5cnn(C(F)F)c5)cnc34)nc12` [Cmpd 58, 3-(1-(difluoromethyl)-1H-pyrazol-4-yl)-N-((7-methyl-3H-imidazo[4,5-b]pyridin-2-yl)methyl)-6-morpholinoimidazo[1,2-b]pyridazin-8-amine] registered an IC50 in assay [1] of 65 nM. In assay [2], this compound registered a GI50 of 406 nM. In assay [3], the DC50 was 260 nM and the “Dmax (%)” value is on record as 100%.
Turning to `CN1CCN(c2cc(NCc3nc4cc(Cl)c(Cl)cc4[nH]3)c3ncc(-c4cn[nH]c4)n3n2)CC1` [Cmpd 60, N-((5,6-dichloro-1H-benzo[d]imidazol-2-yl)methyl)-6-(4-methylpiperazin-1-yl)-3-(1H-pyrazol-4-yl) imidazo[1,2-b]pyridazin-8-amine], in assay [1], the concentration for half-maximal inhibition (IC50) turned out to be 907 nM. This compound registered a 50% growth inhibitory concentration (GI50) in assay [2] of 284 nM. For the same compound, in assay [3], the DC50 was found to be 1400 nM and the “Dmax (%)” value was 100%.
`Clc1cc2nc(CNc3cc(N4CCOCC4)nn4c(-c5cn[nH]c5)cnc34)[nH]c2cc1Cl` [Cmpd 61, N-((5,6-dichloro-1H-benzo[d]imidazol-2-yl)methyl)-6-morpholino-3-(1H-pyrazol-4-yl) imidazo[1,2-b]pyridazin-8-amine] registered an IC50 in assay [1] of 1320 nM. In assay [2], this compound yielded a GI50 of 235 nM. Also, in assay [3], the DC50 worked out at 590 nM and the “Dmax (%)” value was found to be 100%.
The like results for `CN1CCN(c2cc(NCc3nc4cc(Cl)c(Cl)cc4[nH]3)c3ncc(-c4ccsc4)n3n2)CC1` [Cmpd 63, N-((5,6-dichloro-1H-benzo[d]imidazol-2-yl)methyl)-6-(4-methylpiperazin-1-yl)-3-(thiophen-3-yl) imidazo[1,2-b]pyridazin-8-amine] were, in that order, 2010 nM, 78 nM, 180 nM and 100%.
The like results for `Clc1cc2nc(CNc3cc(N4CCOCC4)nn4c(-c5ccsc5)cnc34)[nH]c2cc1Cl` [Cmpd 64, N-((5,6-dichloro-1H-benzo[d]imidazol-2-yl)methyl)-6-morpholino-3-(thiophen-3-yl) imidazo[1,2-b]pyridazin-8-amine] were, in that order, 4250 nM, 168 nM, 340 nM and 100%.
The like results for `CN1CCN(c2cc(NCc3nc4cccc(Cl)c4[nH]3)c3ncc(-c4ccsc4)n3n2)CC1` [Cmpd 66, N-((7-chloro-1H-benzo[d]imidazol-2-yl)methyl)-6-(4-methylpiperazin-1-yl)-3-(thiophen-3-yl) imidazo[1,2-b]pyridazin-8-amine] were, in that order, 90 nM, 180 nM, 80 nM and 85%.
In assay [1], `Clc1cccc2nc(CNc3cc(N4CCOCC4)nn4c(-c5ccsc5)cnc34)[nH]c12` [Cmpd 67, N-((7-chloro-1H-benzo[d]imidazol-2-yl)methyl)-6-morpholino-3-(thiophen-3-yl) imidazo[1,2-b]pyridazin-8-amine] displayed an IC50 of 300 nM. Also, in assay [2], the GI50 worked out at 207 nM. For the same compound, in assay [3], it took 80 nM to reach half-maximal degradation (DC50) and the “Dmax (%)” value came out at 85%.
The like results for `Clc1cccc2nc(CNc3cc(N4CCNCC4)nn4c(-c5ccsc5)cnc34)[nH]c12` [Cmpd 68, N-((7-chloro-1H-benzo[d]imidazol-2-yl)methyl)-6-(piperazin-1-yl)-3-(thiophen-3-yl) imidazo[1,2-b]pyridazin-8-amine] were, in that order, 65 nM, 33 nM, 10 nM and 90%.
Compound `NC1CCN(c2cc(NCc3nc4cccc(Cl)c4[nH]3)c3ncc(-c4ccsc4)n3n2)C1` (stereo not shown) [Cmpd 69, 6-(3-aminopyrrolidin-1-yl)-N-((7-chloro-1H-benzo[d]imidazol-2-yl)methyl)-3-(thiophen-3-yl) imidazo[1,2-b]pyridazin-8-amine] returned an IC50 in assay [1] of 57 nM. In assay [2], this compound registered a GI50 of 92 nM. In assay [3], the DC50 stood at 150 nM and the “Dmax (%)” value is given as 85%.
The like results for `NC1CCN(c2cc(NCc3nc4cccc(Cl)c4[nH]3)c3ncc(-c4ccsc4)n3n2)CC1` [Cmpd 70, 6-(4-aminopiperidin-1-yl)-N-((7-chloro-1H-benzo[d]imidazol-2-yl)methyl)-3-(thiophen-3-yl) imidazo[1,2-b]pyridazin-8-amine] were, in that order, 78 nM, 73 nM, 160 nM and 95%.
The corresponding values for `CN1CCC(Nc2cc(NCc3nc4cccc(Cl)c4[nH]3)c3ncc(-c4ccsc4)n3n2)CC1` [Cmpd 71, N8-((7-chloro-1H-benzo[d]imidazol-2-yl)methyl)-N6-(1-methylpiperidin-4-yl)-3-(thiophen-3-yl) imidazo[1,2-b]pyridazine-6,8-diamine] are 130 nM, 71 nM, 160 nM and 100%.
The corresponding values for `Clc1cccc2nc(CNc3cc(NC4CCNCC4)nn4c(-c5ccsc5)cnc34)[nH]c12` [Cmpd 72, N8-((7-chloro-1H-benzo[d]imidazol-2-yl)methyl)-N6-(piperidin-4-yl)-3-(thiophen-3-yl) imidazo[1,2-b]pyridazine-6,8-diamine] are 56 nM, 49 nM, 50 nM and 100%.
`Cc1ccnc2[nH]c(CNc3cc(N4CCN(C)CC4)nn4c(-c5ccsc5)cnc34)nc12` [Cmpd 75, N-((7-methyl-3H-imidazo[4,5-b]pyridin-2-yl)methyl)-6-(4-methylpiperazin-1-yl)-3-(thiophen-3-yl) imidazo[1,2-b]pyridazin-8-amine] came in with an IC50 in assay [1] of 38 nM. Moreover, halving of growth in assay [2] (GI50) required 146 nM. Moreover, in assay [3], the DC50 was 140 nM and the “Dmax (%)” value is reported as 80%.
Consider `Cc1ccnc2[nH]c(CNc3cc(N4CCOCC4)nn4c(-c5ccsc5)cnc34)nc12` [Cmpd 76, N-((7-methyl-3H-imidazo[4,5-b]pyridin-2-yl)methyl)-6-morpholino-3-(thiophen-3-yl) imidazo[1,2-b]pyridazin-8-amine], for which the concentration for half-maximal inhibition (IC50) in assay [1] is 7380 nM. Also, the GI50 in assay [2] is 376 nM. In addition, in assay [3], half-maximal degradation (DC50) was put at 250 nM and the “Dmax (%)” value is listed as 75%.
In assay [1], `CN1CCN(c2cc(NCc3nc4c(F)c(F)ccc4[nH]3)c3ncc(-c4ccsc4)n3n2)CC1` [Cmpd 78, N-((4,5-difluoro-1H-benzo[d]imidazol-2-yl)methyl)-6-(4-methylpiperazin-1-yl)-3-(thiophen-3-yl) imidazo[1,2-b]pyridazin-8-amine] yielded an IC50 of 473 nM and a remaining activity at 1 µM of 24%. In assay [2], this compound came in with a GI50 of 425 nM. In addition, in assay [3], the DC50 was determined as 260 nM and the “Dmax (%)” value amounted to 80%.
The like results for `CN1CCN(c2cc(NCc3nc4cc(Cl)c(Cl)cc4[nH]3)c3ncc(-c4csc(C#N)c4)n3n2)CC1` [Cmpd 79, 4-(8-(((5,6-dichloro-1H-benzo[d]imidazol-2-yl)methyl)amino)-6-(4-methylpiperazin-1-yl)imidazo[1,2-b]pyridazin-3-yl)thiophene-2-carbonitrile] were, in that order, 5000 nM, 80%, 1470 nM, 1700 nM and 75%.
The corresponding values for `N#Cc1cc(-c2cnc3c(NCc4nc5cc(Cl)c(Cl)cc5[nH]4)cc(N4CCOCC4)nn23)cs1` [Cmpd 80, 4-(8-(((5,6-dichloro-1H-benzo[d]imidazol-2-yl)methyl)amino)-6-morpholinoimidazo[1,2-b]pyridazin-3-yl)thiophene-2-carbonitrile] are 3000 nM, 75%, 867 nM, 1000 nM and 95%.
The corresponding values for `CN1CCN(c2cc(NCc3nc4cccc(Cl)c4[nH]3)c3ncc(-c4csc(C#N)c4)n3n2)CC1` [Cmpd 81, 4-(8-(((7-chloro-1/-benzo[d]imidazol-2-yl)methyl)amino)-6-(4-methylpiperazin-1-yl)imidazo[1,2-b]pyridazin-3-yl)thiophene-2-carbonitrile] are 647 nM, 33%, 1920 nM, 300 nM and 80%.

The IC50 is the concentration that gives 50% inhibition. Usually GI50 stands for the concentration at which growth is held to half of that of the control. A higher GI50 goes with less potent growth inhibition. By DC50 is commonly meant the midpoint of the concentration-degradation curve. High values mean a less potent degrader, low ones a more potent degrader. As usually defined, the remaining activity is the activity still measured, relative to the control. Read a low remaining activity as little activity left.
